Results published in patent US20230212549A1, “COMPOUNDS COMPRISING A […] LIGAND AND USE THEREOF” (priority 2021, published 2023).
Numbered stars: 1 amine (or outer) side, 2 acyl side, 3 side chain; on linkers, the order of the positions; unused ones are H or OH. Bridge positions count the residues as written; N and C are the ends. Peptide text beside a SMILES is read from it. * marks the point of attachment. X13 = O=C(O)CN1CCN(CC(=O)O)CCN(CC(=O)N2CCN(Cc3cc(C[*:1])cc(C[*:2])c3)CC2)CCN(CC(=O)O)CC1; Hexanoyl = CCCCCC(=O)*

Tests used:
Human recombinant FAP = Human recombinant FAP (Homo sapiens, UniProt Q12884); assay: FRET-based FAP protease activity assay; format: biochemical; parameters: purchased R&D systems 3715-SE; conditions: pIC50 Category (Activity), 37° C.
[1] = target: T1, FAP-expressing human WI-38 fibroblasts (Homo sapiens, UniProt Q12884); assay: Competitive FACS binding assay
T1 construct: FAP-expressing human WI-38 fibroblasts (ECACC) were cultured in EMEM; host or cells: WI-38 human fibroblasts
Procedure: Cells were analyzed in an Attune NxT flow cytometer. […] […].
Cells were analyzed in an Attune NxT flow cytometer. […]

[2] = FRET-based FAP protease activity assay, recombinant human FAP

Human recombinant FAP, sequence (Q12884 whole entry): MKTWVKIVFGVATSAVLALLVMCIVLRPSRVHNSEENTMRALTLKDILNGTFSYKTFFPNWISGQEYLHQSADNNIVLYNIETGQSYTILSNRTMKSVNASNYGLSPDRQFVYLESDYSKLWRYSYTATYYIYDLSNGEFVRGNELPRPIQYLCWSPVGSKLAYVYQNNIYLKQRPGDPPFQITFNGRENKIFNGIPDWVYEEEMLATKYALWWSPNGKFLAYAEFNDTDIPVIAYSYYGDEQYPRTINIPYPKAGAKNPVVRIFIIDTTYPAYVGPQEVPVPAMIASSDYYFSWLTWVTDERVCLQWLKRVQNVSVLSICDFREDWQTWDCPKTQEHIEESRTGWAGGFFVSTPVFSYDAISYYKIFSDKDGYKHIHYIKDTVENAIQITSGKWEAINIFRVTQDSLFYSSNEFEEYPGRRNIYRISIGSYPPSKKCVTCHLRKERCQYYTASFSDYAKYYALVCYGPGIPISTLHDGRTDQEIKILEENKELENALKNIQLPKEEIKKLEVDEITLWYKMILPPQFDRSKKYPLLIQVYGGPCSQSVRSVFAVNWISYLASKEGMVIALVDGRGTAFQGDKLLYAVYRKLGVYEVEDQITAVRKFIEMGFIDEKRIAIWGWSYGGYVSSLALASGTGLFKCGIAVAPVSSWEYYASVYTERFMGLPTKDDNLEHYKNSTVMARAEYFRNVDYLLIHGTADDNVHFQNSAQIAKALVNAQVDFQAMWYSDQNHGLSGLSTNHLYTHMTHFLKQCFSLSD
T1 sequence (Q12884 whole entry): as above

| SMILES | IC50 (Human recombinant FAP; [2]) | IC50 [1] | IC50 (Human recombinant FAP; FRET-peptide substrate) |
| --- | --- | --- | --- |
| CC(=O)N[C@@H](CCCC(=O)O)C(=O)N[C@H]1CSCc2cccc(c2)CSC[C@@H](C(N)=O)NC(=O)[C@H](Cc2ccccc2)NC(=O)[C@H](CCC(N)=O)NC(=O)[C@H]([C@@H](C)O)NC(=O)[C@@H]2CCCN2C(=O)[C@@H]2CCCN2C1=O [3BP-3764, Ac-Aad-[Cys(3MeBn)-Pro-Pro-Thr-Gln-Phe-Cys]-NH2] | > 1000 nM | > 1000 nM | – |
| C[C@@H](O)[C@@H]1NC(=O)[C@@H]2CCCN2C(=O)[C@@H]2CCCN2C(=O)[C@@H](NC(=O)CCCC(=O)O)CSCc2cccc(c2)CSC[C@@H](C(N)=O)NC(=O)[C@H](Cc2ccccc2)NC(=O)[C@H](CCC(N)=O)NC1=O [3BP-3765, HO-Glutar-[Cys(3MeBn)-Pro-Pro-Thr-Gln-Phe-Cys]-NH2] | 100 to 794 nM | 100 to 794 nM | – |
| CCCCCC(=O)N[C@H]1CSCc2cc(cc(CN3CCN(C(=O)CN4CCN(CC(=O)O)CCN(CC(=O)O)CCN(CC(=O)O)CC4)CC3)c2)CSC[C@@H](C(=O)N[C@@H](CC(=O)O)C(N)=O)NC(=O)[C@H](CCC(N)=O)NC(=O)[C@H](Cc2ccccc2)NC(=O)[C@@H]2CCCN2C(=O)[C@H]([C@@H](C)O)NC(=O)[C@@H]2CCCN2C1=O [3BP-3854, Hex-[Cys(tMeBn(DOTA-PP))-Pro-Thr-Pro-Phe-Gln-Cys]-Asp-NH2] (Hexanoyl-CPTPFQCD-NH2; linker 1-7 via X13) | > 1000 nM | > 1000 nM | – |
| CCCCCC(=O)N[C@H]1CSCc2cc(cc(CN3CCN(C(=O)CN4CCN(CC(=O)O)CCN(CC(=O)O)CCN(CC(=O)O)CC4)CC3)c2)CSC[C@@H](C(=O)N[C@@H](CC(=O)O)C(N)=O)NC(=O)[C@@H]2CCCN2C(=O)[C@@H]2CCCN2C(=O)[C@H]([C@@H](C)O)NC(=O)[C@H](CCC(N)=O)NC(=O)[C@H](Cc2ccccc2)NC1=O [3BP-3855, Hex-[Cys(tMeBn(DOTA-PP))-Phe-Gln-Thr-Pro-Pro-Cys]-Asp-NH2] (Hexanoyl-CFQTPPCD-NH2; linker 1-7 via X13) | > 1000 nM | > 1000 nM | – |
| CCCCCC(=O)N[C@H]1CSCc2cc(cc(CN3CCN(C(=O)CN4CCN(CC(=O)O)CCN(CC(=O)O)CCN(CC(=O)O)CC4)CC3)c2)CSC[C@@H](C(=O)N[C@@H](CC(=O)O)C(N)=O)NC(=O)[C@@H]2CCCN2C(=O)[C@H](Cc2ccccc2)NC(=O)[C@@H]2CCCN2C(=O)[C@H](CCC(N)=O)NC(=O)[C@H]([C@@H](C)O)NC1=O [3BP-3856, Hex-[Cys(tMeBn(DOTA-PP))-Thr-Gln-Pro-Phe-Pro-Cys]-Asp-NH2] (Hexanoyl-CTQPFPCD-NH2; linker 1-7 via X13) | > 1000 nM | > 1000 nM | – |
| CCCCCC(=O)N[C@H]1CSCc2cc(cc(CN3CCN(C(=O)CN4CCN(CC(=O)O)CCN(CC(=O)O)CCN(CC(=O)O)CC4)CC3)c2)CSC[C@@H](C(=O)N[C@@H](CC(=O)O)C(N)=O)NC(=O)[C@H]([C@@H](C)O)NC(=O)[C@@H]2CCCN2C(=O)[C@H](Cc2ccccc2)NC(=O)[C@H](CCC(N)=O)NC(=O)[C@@H]2CCCN2C1=O [3BP-3857, Hex-[Cys(tMeBn(DOTA-PP))-Pro-Gln-Phe-Pro-Thr-Cys]-Asp-NH2] (Hexanoyl-CPQFPTCD-NH2; linker 1-7 via X13) | 100 to 794 nM | 100 to 794 nM | – |
| C[C@@H](O)[C@@H]1NC(=O)[C@@H]2CCCN2C(=O)[C@@H]2CCCN2C(=O)[C@@H](NC(=O)CCCS(N)(=O)=O)CSCc2cccc(c2)CSC[C@@H](C(N)=O)NC(=O)[C@H](Cc2ccccc2)NC(=O)[C@H](CCC(N)=O)NC1=O [3BP-3860, H2NSO2-But-[Cys(3MeBn)-Pro-Pro-Thr-Gln-Phe-Cys]-NH2] | > 1000 nM | > 1000 nM | – |
| C[C@@H](O)[C@@H]1NC(=O)[C@@H]2CCCN2C(=O)[C@@H]2CCCN2C(=O)[C@@H](NC(=O)C2CCCCC2)CSCc2cc(CSCCNC(=O)CN3CCN(CC(=O)O)CCN(CC(=O)O)CCN(CC(=O)O)CC3)cc(c2)CSC[C@@H](C(=O)O)NC(=O)[C@H](Cc2ccccc2)NC(=O)[C@H](CCC(N)=O)NC1=O [3BP-3908, Chex-[Cys(tMeBn(DOTA-AET))-Pro-Pro-Thr-Gln-Phe-Cys]-OH] | – | 100 to 794 nM | 100 to 794 nM |
| C[C@@H](O)[C@@H]1NC(=O)[C@@H]2CCCN2C(=O)[C@@H]2CCCN2C(=O)[C@@H](NC(=O)C2CCCC2)CSCc2cc(CSCCNC(=O)CN3CCN(CC(=O)O)CCN(CC(=O)O)CCN(CC(=O)O)CC3)cc(c2)CSC[C@@H](C(=O)O)NC(=O)[C@H](Cc2ccccc2)NC(=O)[C@H](CCC(N)=O)NC1=O [3BP-3909, Cp-[Cys(tMeBn(DOTA-AET))-Pro-Pro-Thr-Gln-Phe-Cys]-OH] | – | 10 to 79.4 nM | 10 to 79.4 nM |
| C[C@@H](O)[C@@H]1NC(=O)[C@@H]2CCCN2C(=O)[C@@H]2CCCN2C(=O)[C@@H](NC(=O)[C@H]2CCCO2)CSCc2cc(CSCCNC(=O)CN3CCN(CC(=O)O)CCN(CC(=O)O)CCN(CC(=O)O)CC3)cc(c2)CSC[C@@H](C(=O)O)NC(=O)[C@H](Cc2ccccc2)NC(=O)[C@H](CCC(N)=O)NC1=O [3BP-3911, Rth-[Cys(tMeBn(DOTA-AET))-Pro-Pro-Thr-Gln-Phe-Cys]-OH] | – | 10 to 79.4 nM | 10 to 79.4 nM |
| C#CCCC(=O)N[C@H]1CSCc2cc(CSCCNC(=O)CN3CCN(CC(=O)O)CCN(CC(=O)O)CCN(CC(=O)O)CC3)cc(c2)CSC[C@@H](C(=O)O)NC(=O)[C@H](Cc2ccccc2)NC(=O)[C@H](CCC(N)=O)NC(=O)[C@H]([C@@H](C)O)NC(=O)[C@@H]2CCCN2C(=O)[C@@H]2CCCN2C1=O [3BP-3912, Pyn-[Cys(tMeBn(DOTA-AET))-Pro-Pro-Thr-Gln-Phe-Cys]-OH] | – | 10 to 79.4 nM | 100 to 794 nM |
| C#CCCCC(=O)N[C@H]1CSCc2cc(CSCCNC(=O)CN3CCN(CC(=O)O)CCN(CC(=O)O)CCN(CC(=O)O)CC3)cc(c2)CSC[C@@H](C(=O)O)NC(=O)[C@H](Cc2ccccc2)NC(=O)[C@H](CCC(N)=O)NC(=O)[C@H]([C@@H](C)O)NC(=O)[C@@H]2CCCN2C(=O)[C@@H]2CCCN2C1=O [3BP-3913, Hyn-[Cys(tMeBn(DOTA-AET))-Pro-Pro-Thr-Gln-Phe-Cys]-OH] | – | 10 to 79.4 nM | 10 to 79.4 nM |
| C=CCCC(=O)N[C@H]1CSCc2cc(CSCCNC(=O)CN3CCN(CC(=O)O)CCN(CC(=O)O)CCN(CC(=O)O)CC3)cc(c2)CSC[C@@H](C(=O)O)NC(=O)[C@H](Cc2ccccc2)NC(=O)[C@H](CCC(N)=O)NC(=O)[C@H]([C@@H](C)O)NC(=O)[C@@H]2CCCN2C(=O)[C@@H]2CCCN2C1=O [3BP-3914, Peet-[Cys(tMeBn(DOTA-AET))-Pro-Pro-Thr-Gln-Phe-Cys]-OH] | – | 10 to 79.4 nM | 10 to 79.4 nM |
| C=CCOC(=O)N[C@H]1CSCc2cc(CSCCNC(=O)CN3CCN(CC(=O)O)CCN(CC(=O)O)CCN(CC(=O)O)CC3)cc(c2)CSC[C@@H](C(=O)O)NC(=O)[C@H](Cc2ccccc2)NC(=O)[C@H](CCC(N)=O)NC(=O)[C@H]([C@@H](C)O)NC(=O)[C@@H]2CCCN2C(=O)[C@@H]2CCCN2C1=O [3BP-3915, Alloc-[Cys(tMeBn(DOTA-AET))-Pro-Pro-Thr-Gln-Phe-Cys]-OH] | – | 10 to 79.4 nM | 10 to 79.4 nM |
| C=CCCOC(=O)N[C@H]1CSCc2cc(CSCCNC(=O)CN3CCN(CC(=O)O)CCN(CC(=O)O)CCN(CC(=O)O)CC3)cc(c2)CSC[C@@H](C(=O)O)NC(=O)[C@H](Cc2ccccc2)NC(=O)[C@H](CCC(N)=O)NC(=O)[C@H]([C@@H](C)O)NC(=O)[C@@H]2CCCN2C(=O)[C@@H]2CCCN2C1=O [3BP-3916, Bulloc-[Cys(tMeBn(DOTA-AET))-Pro-Pro-Thr-Gln-Phe-Cys]-OH] | – | < 10 nM | 10 to 79.4 nM |
